The NIST ThermoML archive (doi:10.1016/j.jct.2019.03.023)
Several values for one entry are separate records, joined by “and”; a condition that tells them apart may be missing. Equal entries are not always repeated.

Assay: molar heat capacity at constant volume
Details: Vacuum adiabatic calorimetry

CC(C)O [propan-2-ol]
Fluid (supercritical or subcritical phases)
Details	molar heat capacity at constant volume
506.89 K, Mass density=324.5 kg/m3	348.43 J/K/mol and 347.05 J/K/mol
506.89 K, Mass density=343.1 kg/m3	330.28 J/K/mol
506.97 K, Mass density=329.2 kg/m3	330.22 J/K/mol
506.98 K, Mass density=288.99 kg/m3	360.33 J/K/mol
506.98 K, Mass density=324.5 kg/m3	352.64 J/K/mol
506.98 K, Mass density=343.1 kg/m3	333.83 J/K/mol
507.07 K, Mass density=288.99 kg/m3	365.74 J/K/mol
507.07 K, Mass density=324.5 kg/m3	346.75 J/K/mol
507.08 K, Mass density=343.1 kg/m3	331.96 J/K/mol
507.11 K, Mass density=329.2 kg/m3	342.54 J/K/mol
507.17 K, Mass density=288.99 kg/m3	355.1 J/K/mol
507.17 K, Mass density=293.3 kg/m3	358.29 J/K/mol
507.17 K, Mass density=324.5 kg/m3	351.56 J/K/mol
507.17 K, Mass density=343.1 kg/m3	333.89 J/K/mol
507.2 K, Mass density=329.2 kg/m3	339.6 J/K/mol
507.26 K, Mass density=288.99 kg/m3	361.53 J/K/mol
507.26 K, Mass density=324.5 kg/m3	348.79 J/K/mol
507.26 K, Mass density=343.1 kg/m3	336.65 J/K/mol
507.3 K, Mass density=329.2 kg/m3	339.42 J/K/mol
507.35 K, Mass density=293.3 kg/m3	367 J/K/mol
507.35 K, Mass density=324.5 kg/m3	351.56 J/K/mol
507.36 K, Mass density=343.1 kg/m3	338.58 J/K/mol
507.4 K, Mass density=329.2 kg/m3	335.93 J/K/mol
507.45 K, Mass density=293.3 kg/m3	363.82 J/K/mol
507.45 K, Mass density=324.5 kg/m3	357.02 J/K/mol
507.45 K, Mass density=343.1 kg/m3	335.69 J/K/mol
507.5 K, Mass density=329.2 kg/m3	343.02 J/K/mol
507.54 K, Mass density=293.3 kg/m3	371.39 J/K/mol
507.54 K, Mass density=324.5 kg/m3	349.09 J/K/mol
507.54 K, Mass density=343.1 kg/m3	337.79 J/K/mol
507.59 K, Mass density=329.2 kg/m3	338.94 J/K/mol
507.63 K, Mass density=293.3 kg/m3	367.06 J/K/mol
507.63 K, Mass density=324.5 kg/m3	353.72 J/K/mol
507.65 K, Mass density=343.1 kg/m3	339.78 J/K/mol
507.69 K, Mass density=329.2 kg/m3	354.86 J/K/mol
507.7 K, Mass density=329.2 kg/m3	347.95 J/K/mol
507.73 K, Mass density=293.3 kg/m3	369.4 J/K/mol
507.73 K, Mass density=324.5 kg/m3	360.99 J/K/mol
507.82 K, Mass density=274 kg/m3	385.09 J/K/mol
507.82 K, Mass density=293.3 kg/m3	371.39 J/K/mol
507.82 K, Mass density=324.5 kg/m3	358.53 J/K/mol
507.82 K, Mass density=343.1 kg/m3	338.76 J/K/mol
507.89 K, Mass density=329.2 kg/m3	352.76 J/K/mol
507.91 K, Mass density=274 kg/m3	385.33 J/K/mol
507.91 K, Mass density=293.3 kg/m3	375.83 J/K/mol
507.91 K, Mass density=324.5 kg/m3	365.2 J/K/mol
507.91 K, Mass density=343.1 kg/m3	340.98 J/K/mol
507.95 K, Mass density=343.1 kg/m3	342.54 J/K/mol and 212.44 J/K/mol
508.01 K, Mass density=234.3 kg/m3	436.29 J/K/mol
508.01 K, Mass density=255.8 kg/m3	424.87 J/K/mol
508.01 K, Mass density=274 kg/m3	393.86 J/K/mol
508.01 K, Mass density=293.3 kg/m3	380.52 J/K/mol
508.01 K, Mass density=324.5 kg/m3	363.27 J/K/mol
508.01 K, Mass density=343.1 kg/m3	205.52 J/K/mol
508.04 K, Mass density=329.2 kg/m3	358.17 J/K/mol
508.1 K, Mass density=234.3 kg/m3	442.3 J/K/mol
508.1 K, Mass density=255.8 kg/m3	425.65 J/K/mol
508.1 K, Mass density=266.3 kg/m3	412.31 J/K/mol
508.1 K, Mass density=274 kg/m3	396.93 J/K/mol
508.1 K, Mass density=281.9 kg/m3	391.7 J/K/mol
508.1 K, Mass density=293.3 kg/m3	381.6 J/K/mol
508.1 K, Mass density=324.5 kg/m3	367.06 J/K/mol
508.1 K, Mass density=343.1 kg/m3	191.64 J/K/mol
508.16 K, Mass density=329.2 kg/m3	363.76 J/K/mol and 218.14 J/K/mol
508.18 K, Mass density=329.2 kg/m3	208.53 J/K/mol
508.19 K, Mass density=234.3 kg/m3	447.71 J/K/mol
508.19 K, Mass density=255.8 kg/m3	429.38 J/K/mol
508.19 K, Mass density=266.3 kg/m3	417.66 J/K/mol
508.19 K, Mass density=274 kg/m3	404.38 J/K/mol
508.19 K, Mass density=281.9 kg/m3	398.49 J/K/mol
508.19 K, Mass density=288.99 kg/m3	390.74 J/K/mol
508.19 K, Mass density=293.3 kg/m3	383.29 J/K/mol
508.19 K, Mass density=324.5 kg/m3	370.25 J/K/mol
508.19 K, Mass density=343.1 kg/m3	187.98 J/K/mol
508.28 K, Mass density=234.3 kg/m3	453.36 J/K/mol
508.28 K, Mass density=255.8 kg/m3	438.99 J/K/mol
508.28 K, Mass density=266.3 kg/m3	426.19 J/K/mol
508.28 K, Mass density=274 kg/m3	414.84 J/K/mol
508.28 K, Mass density=281.9 kg/m3	409.07 J/K/mol
508.28 K, Mass density=288.99 kg/m3	395.61 J/K/mol
508.28 K, Mass density=293.3 kg/m3	391.22 J/K/mol
508.28 K, Mass density=324.5 kg/m3	371.75 J/K/mol and 221.39 J/K/mol
508.28 K, Mass density=329.2 kg/m3	195.91 J/K/mol
508.29 K, Mass density=343.1 kg/m3	181.07 J/K/mol
508.34 K, Mass density=324.5 kg/m3	214 J/K/mol
508.37 K, Mass density=329.2 kg/m3	192.6 J/K/mol
508.38 K, Mass density=234.3 kg/m3	464.9 J/K/mol
508.38 K, Mass density=255.8 kg/m3	446.27 J/K/mol
508.38 K, Mass density=266.3 kg/m3	435.27 J/K/mol

Liquid
Details	molar heat capacity at constant volume [J/K/mol]
507.95 K	212.44
508.16 K	218.14
508.28 K	221.39
